Assay results: patent US5324857A, “Inhibition of the formation of nitrosamines” (Solvay Interox, priority 1992, dated 1994)

Assays:
[1] = Nitrosamine formation during oxidation of dodecyldimethylamine with hydrogen peroxide under metal stress conditions, DTPA chelant, with free radical scavenger; details: for Nitrosamine content, total: MDNA + NDMA; for Nitrosamine content, total / Nitrosamine content, MDNA / Nitrosamine content, NDMA: 2.0 mmoles scavenger, DTPA 0.043 mmoles, 60° C. then 75° C., total 4 hours; for Nitrosamine content, MDNA: methyldodecylnitrosamine; for Nitrosamine content, NDMA: nitrosodimethylamine; for reduction in nitrosamine formation: mixture already containing carboxylate chelating agent (DTPA), in words
Experimental: (§1) This Comparison and these Examples were each carried out using the following general method:-Dodecyldimethylamine (0.2012 moles, 42.94 g), and sufficient pure water to 150 g, ie approximately 106.9 g, were charged into a passivated 250 mL reaction flask, at ambient temperature together with 0.16 g of the stock metal solution described below to introduce 0.011 mmoles of transition metal impurities and thereby create stress conditions. A chelating agent, DTPA, viz diethylenetriaminepentacarboxylic acid, 0.043 mmoles, was then introduced into the mixture to provide a mole ratio to the metal of about 4:1.
(§2) The stock metal solution was obtained by dissolving CuSO4.5H2O, 0.393 g, MnSO4.H2O, 0.1475 g, K2CrO4, 0.0935 g, Fe(NH4)2(SO4)2.6H2O, 3.5106 g, AlK(SO4)2.12H2O, 8.791 g in 500 mL water (deionized) containing 20 mL of 10%w/w sulfuric acid solution. It contained a total of 2350 ppm metals concentration. Thus, the concentration of metals in the reaction mixture was about 2.3 ppm.
(§3) The reaction mixture was then heated to a temperature of 60° C. and stirred. An aqueous hydrogen peroxide solution, 50% w/w solution, stabilized by sodium pyrophosphate at 70 ppm calculated as PO4, 15.03 g, was then delivered into the reaction mixture at a constant slow rate during the subsequent 45 minutes. In the Examples, but not in the Comparison, the hydrogen peroxide solution also contained 2.0 mmoles of a free radical scavenger, as specified below. When all the hydrogen peroxide had been introduced, the reaction temperature was increased to 75° C. and the reaction permitted to continue for a total of 4 hours. The mixture was then cooled and analyzed for yield of amine oxide and for the production of by-product volatile nitrosamines, specifically methyldodecylnitrosamine (MDNA) and nitrosodimethylamine (NDMA).
The free radical scavengers were respectively 2,6-di-tert-butyl-4-methylphenol (BHT) in Ex2, butylated hydroxyanisole, a mixture of 2-tert-butylmethoxy anisole and 3-tert-butylmethoxy anisole (BHA) in Ex3, ethyl gallate (EtG) in Ex4 and propyl gallate (PrG) in Ex5.

[2] = Nitrosamine formation during oxidation of dodecyldimethylamine with hydrogen peroxide under metal stress conditions, CDTMPA chelant, with free radical scavenger; details: for Nitrosamine content, total: MDNA + NDMA; for Nitrosamine content, total / Nitrosamine content, MDNA / Nitrosamine content, NDMA: 2.0 mmoles scavenger, CDTMPA, 60° C. then 75° C., total 4 hours; for Nitrosamine content, MDNA: methyldodecylnitrosamine; for Nitrosamine content, NDMA: nitrosodimethylamine; for reduction in nitrosamine formation: mixture already containing phosphonic acid chelating agent (CDTMPA), in words
Experimental: as §1, with “A chelating agent, DTPA, viz diethylenetriaminepentacarboxylic acid, 0.043 mmoles, was then introduced into the mixture to provide a mole ratio to the metal of about 4:1.” left out
as §2, §3

SMILES | Nitrosamine content, total [1] | Nitrosamine content, MDNA [1] | Nitrosamine content, NDMA [1] | Nitrosamine content, total [2] | Nitrosamine content, MDNA [2] | Nitrosamine content, NDMA [2] | reduction in nitrosamine formation [1] | reduction in nitrosamine formation [2]
COc1ccc(O)c(C(C)(C)C)c1 [BHA, butylated hydroxyanisole] | 779 ppb | 652 ppb | 127 ppb | 276 ppb | 151 ppb | 125 ppb | – | –
Cc1cc(C(C)(C)C)c(O)c(C(C)(C)C)c1 [BHT, 2,6-di-tert-butyl-4-methylphenol] | 1794 ppb | 1420 ppb | 374 ppb | 335 ppb | 212 ppb | 123 ppb | – | –
CCC(C)O (stereo not shown) [BuL, 2-butanol] | – | – | – | 1261 ppb | 582 ppb | 679 ppb | – | –
CCOC(=O)c1cc(O)c(O)c(O)c1 [EtG, ethyl gallate] | 407 ppb | 334 ppb | 73 ppb | 87 ppb | 57 ppb | 30 ppb | marked reduction in nitrosamine formation | marked reduction in nitrosamine formation
CCCOC(=O)c1cc(O)c(O)c(O)c1 [PrG, propyl gallate] | 308 ppb | 230 ppb | 78 ppb | 80 ppb | 59 ppb | 21 ppb | marked reduction in nitrosamine formation | marked reduction in nitrosamine formation
O=C(O)CCSCCC(=O)O [TPA, thiodipropionic acid] | – | – | – | 541 ppb | 444 ppb | 97 ppb | – | –
